Data published in ChEMBL document CHEMBL1201862, “PubChem BioAssay data set” (2004).
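Method: 48-hour compound exposure of cells in 96-well plates, five concentrations, linear interpolation of endpoints. At the GI50, growth is halved.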 Activity calls are given as the source filed them. No stated cut-off is given here; in the data, active = GI50 up to about 1.1 µM and inactive = higher.

Experiments:
Test in all cases: DTP human tumour cell line panel, 48 h
NCI-H23 = test system: NCI-H23
UO-31 = test system: UO-31
CAKI-1 = test system: CAKI-1
OVCAR-4 = test system: OVCAR-4
MDA-N = test system: MDA-N
OVCAR-3 = test system: OVCAR-3
MDA-MB-435 = test system: MDA-MB-435
NCI-H460 = test system: NCI-H460
SF-268 = test system: SF-268
HT-29 = test system: HT-29
ACHN = test system: ACHN
LOX IMVI = test system: LOX IMVI
MDA-MB-231 = test system: MDA-MB-231
A549 = test system: A549
MCF7 = test system: MCF7
SN12C = test system: SN12C
NCI/ADR-RES = test system: NCI/ADR-RES
HL-60 = test system: HL-60
M14 = test system: M14
SF-295 = test system: SF-295

SMILES | GI50 (NCI-H23) | GI50 (UO-31) | GI50 (CAKI-1) | GI50 (OVCAR-4) | GI50 (MDA-N) | GI50 (OVCAR-3) | GI50 (MDA-MB-435) | GI50 (NCI-H460) | GI50 (SF-268) | GI50 (HT-29) | GI50 (ACHN) | GI50 (LOX IMVI) | GI50 (MDA-MB-231) | GI50 (A549) | GI50 (MCF7) | GI50 (SN12C) | GI50 (NCI/ADR-RES) | GI50 (HL-60) | GI50 (M14) | GI50 (SF-295)
Cc1ccc(/C=C2\CCCC(CN(C)C)C2=O)cc1 (stereo not given) | 2.24 µM (inactive) | 1.69 µM (inactive) | 1.55 µM (inactive) | 2.02 µM (inactive) | 1.97 µM (inactive) | 1.76 µM (inactive) | 1.85 µM (inactive) | 3.48 µM (inactive) | 2.06 µM (inactive) | 1.69 µM (inactive) | 2.24 µM (inactive) | 1.77 µM (inactive) | 1.66 µM (inactive) | 15.6 µM (inactive) | 0.525 µM (active) | 1.91 µM (inactive) | 3.32 µM (inactive) | 0.841 µM (active) | 1.81 µM (inactive) | 17.4 µM (inactive)
Cc1nc2c3c(ncn2n1)Oc1c(c(-c2ccccc2)nn1-c1ccccc1)C3c1ccc(Cl)cc1 (stereo not given) | > 100 µM (inactive) | > 100 µM (inactive) | > 100 µM (inactive) | 22.1 µM (inactive) | > 100 µM (inactive) | > 100 µM (inactive) | > 100 µM (inactive) | > 100 µM (inactive) | 47.2 µM (inactive) | > 100 µM (inactive) | 40.8 µM (inactive) | > 100 µM (inactive) | > 100 µM (inactive) | > 100 µM (inactive) | > 100 µM (inactive) | > 100 µM (inactive) | > 100 µM (inactive) | > 10 µM (inactive) | 79.3 µM (inactive) | 50.8 µM (inactive)
COC(=O)n1c(C)c(C=O)c2ccc(OC)cc21 | 28.6 µM (inactive) | 34.4 µM (inactive) | 38.9 µM (inactive) | > 100 µM (inactive) | > 10 µM (inactive) | 59.6 µM (inactive) | 21.1 µM (inactive) | 47.8 µM (inactive) | > 10 µM (inactive) | 33.3 µM (inactive) | 33.1 µM (inactive) | 30.1 µM (inactive) | > 100 µM (inactive) | 43.7 µM (inactive) | 37.2 µM (inactive) | 55.6 µM (inactive) | 49.4 µM (inactive) | 31.3 µM (inactive) | 36.3 µM (inactive) | 24.9 µM (inactive)
COC(=O)/C(=N\N)C(C(=O)C(=O)Nc1cccc([N+](=O)[O-])c1)c1nc2ccc(C(=O)c3ccccc3)cc2nc1O (stereo not given) | > 100 µM (inactive) | 37.5 µM (inactive) | > 100 µM (inactive) | 40.2 µM (inactive) | > 100 µM (inactive) | > 100 µM (inactive) | > 100 µM (inactive) | > 100 µM (inactive) | > 100 µM (inactive) | > 100 µM (inactive) | > 100 µM (inactive) | > 100 µM (inactive) | > 100 µM (inactive) | 61.4 µM (inactive) | 54.2 µM (inactive) | > 100 µM (inactive) | > 100 µM (inactive) | 32.5 µM (inactive) | > 100 µM (inactive) | 96.4 µM (inactive)
O=[N+]([O-])c1ccc2[nH]c(=S)[nH]c(=S)c2c1 | > 100 µM (inactive) | > 100 µM (inactive) | > 100 µM (inactive) | > 100 µM (inactive) | > 100 µM (inactive) | > 100 µM (inactive) | > 100 µM (inactive) | > 100 µM (inactive) | > 100 µM (inactive) | > 100 µM (inactive) | > 100 µM (inactive) | > 100 µM (inactive) | > 100 µM (inactive) | > 100 µM (inactive) | > 100 µM (inactive) | > 100 µM (inactive) | > 100 µM (inactive) | > 100 µM (inactive) | > 100 µM (inactive) | > 100 µM (inactive)
C=CCSSCC=C | > 58.3 µM (inactive) | 32.9 µM (inactive) | 44.8 µM (inactive) | > 76.6 µM (inactive) | 19.8 µM (inactive) | 52 µM (inactive) | 32.1 µM (inactive) | 32.4 µM (inactive) | 47.9 µM (inactive) | 38.4 µM (inactive) | > 73.6 µM (inactive) | 9.73 µM (inactive) | 16.8 µM (inactive) | > 83.8 µM (inactive) | 30.3 µM (inactive) | 36.7 µM (inactive) | 28.1 µM (inactive) | 3.49 µM (inactive) | 31.8 µM (inactive) | 55.5 µM (inactive)
CCOC(=O)C(NC(=O)c1ccccc1)(N1CCN(c2cc3c(cc2F)c(=O)c(C(=O)O)cn3CC)CC1)C(F)(F)F (stereo not given) | 32.4 µM (inactive) | 31.3 µM (inactive) | 21.4 µM (inactive) | 33.1 µM (inactive) | 37.7 µM (inactive) | 31.3 µM (inactive) | 29.2 µM (inactive) | 32.1 µM (inactive) | 40.9 µM (inactive) | 29 µM (inactive) | 33.1 µM (inactive) | 15.6 µM (inactive) | 23.6 µM (inactive) | 39.9 µM (inactive) | 26.6 µM (inactive) | 32.9 µM (inactive) | 41.4 µM (inactive) | 20 µM (inactive) | 51.1 µM (inactive) | 37.5 µM (inactive)
COc1ccc(/[N+]([O-])=C/c2ccccc2OC(=S)S)cc1 | 27.7 µM (inactive) | 24.6 µM (inactive) | 33.7 µM (inactive) | 28.4 µM (inactive) | 24.7 µM (inactive) | 28.4 µM (inactive) | 21.4 µM (inactive) | 45.1 µM (inactive) | 34.8 µM (inactive) | 22.4 µM (inactive) | 38.5 µM (inactive) | 20.1 µM (inactive) | 56.2 µM (inactive) | > 100 µM (inactive) | 33.6 µM (inactive) | 24.5 µM (inactive) | 28.1 µM (inactive) | 24.3 µM (inactive) | 25.5 µM (inactive) | 33.8 µM (inactive)
CC(=O)OCC1OC(n2c(C)cc(C)c(C#N)c2=S)C(OC(C)=O)C(OC(C)=O)C1OC(C)=O (stereo not given) | > 100 µM (inactive) | > 100 µM (inactive) | > 100 µM (inactive) | > 100 µM (inactive) | > 100 µM (inactive) | > 100 µM (inactive) | > 100 µM (inactive) | > 100 µM (inactive) | > 100 µM (inactive) | > 100 µM (inactive) | > 100 µM (inactive) | > 100 µM (inactive) | > 100 µM (inactive) | > 100 µM (inactive) | > 100 µM (inactive) | > 100 µM (inactive) | > 100 µM (inactive) | > 100 µM (inactive) | > 100 µM (inactive) | > 100 µM (inactive)
O=C1CCCC2=C(N1)C(=O)C=CC2=O | 39.6 µM (inactive) | 43.7 µM (inactive) | 32.5 µM (inactive) | 45.7 µM (inactive) | 16.8 µM (inactive) | 43.5 µM (inactive) | 18.6 µM (inactive) | 45.3 µM (inactive) | 46.2 µM (inactive) | 42.8 µM (inactive) | 40.6 µM (inactive) | > 53.5 µM (inactive) | 16.7 µM (inactive) | > 63.1 µM (inactive) | 18.8 µM (inactive) | 29.2 µM (inactive) | 26.8 µM (inactive) | 8.61 µM (inactive) | 39.8 µM (inactive) | 41.7 µM (inactive)
Cc1csc(-n2nc(C)cc2C)n1 | > 100 µM (inactive) | > 100 µM (inactive) | > 100 µM (inactive) | > 100 µM (inactive) | > 100 µM (inactive) | > 100 µM (inactive) | > 100 µM (inactive) | > 100 µM (inactive) | > 100 µM (inactive) | > 100 µM (inactive) | > 100 µM (inactive) | > 100 µM (inactive) | > 100 µM (inactive) | > 100 µM (inactive) | > 100 µM (inactive) | > 100 µM (inactive) | > 100 µM (inactive) | > 100 µM (inactive) | > 100 µM (inactive) | > 100 µM (inactive)
COC(=O)/C=c1/c2ccccc2n2c1c1ccccc1[n+]2C | 3.29 µM (inactive) | 7.13 µM (inactive) | 15.1 µM (inactive) | 4.11 µM (inactive) | 3.54 µM (inactive) | 3.55 µM (inactive) | 4.2 µM (inactive) | 3.37 µM (inactive) | 5.38 µM (inactive) | 3.79 µM (inactive) | 3.92 µM (inactive) | 4.27 µM (inactive) | 4.59 µM (inactive) | 3.82 µM (inactive) | 3.34 µM (inactive) | 3.65 µM (inactive) | 31.3 µM (inactive) | 2.84 µM (inactive) | 3.99 µM (inactive) | 2.69 µM (inactive)
COc1ccc(-c2c3ccccc3c(-c3ccc(OCCBr)cc3)c3ccccc23)cc1 | > 100 µM (inactive) | 0.102 µM (active) | > 100 µM (inactive) | > 100 µM (inactive) | > 100 µM (inactive) | > 100 µM (inactive) | > 100 µM (inactive) | > 100 µM (inactive) | > 100 µM (inactive) | > 100 µM (inactive) | > 100 µM (inactive) | > 100 µM (inactive) | > 100 µM (inactive) | > 100 µM (inactive) | > 100 µM (inactive) | > 100 µM (inactive) | > 100 µM (inactive) | > 100 µM (inactive) | > 100 µM (inactive) | > 100 µM (inactive)
CCOC(=S)SCC(=O)O | > 100 µM (inactive) | > 100 µM (inactive) | > 100 µM (inactive) | > 100 µM (inactive) | > 100 µM (inactive) | > 100 µM (inactive) | > 100 µM (inactive) | > 100 µM (inactive) | > 100 µM (inactive) | > 100 µM (inactive) | > 100 µM (inactive) | > 100 µM (inactive) | > 100 µM (inactive) | > 100 µM (inactive) | > 100 µM (inactive) | > 100 µM (inactive) | > 100 µM (inactive) | 2.01 µM (inactive) | > 100 µM (inactive) | > 100 µM (inactive)
